Measured values: publication PMC4412288, “Crystal Structures of the Carboxyl cGMP Binding Domain of the Plasmodium falciparum cGMP-dependent Protein Kinase Reveal a Novel Capping Triad Crucial for Merozoite Egress” (PLoS Pathogens, 2015)

Target: T1, PfCNB-C (residues 275–428) (Plasmodium falciparum, UniProt Q8I719)
T1 construct: 275–428 for CNB-C; His-tag (pQTEV, TEV site) (N, cleaved yes); made in house; host or cells: E. coli TP2000 (delta-cya)
Assay: FP binding measurements, isolated PfCNB-C domain
Description: A manually designed construct consisting of PfPKG amino acids 1–853 with codons optimized for expression in E.coli was synthesized at Life Technologies. All PfPKG constructs were ligated into the His-tagged bacterial expression vector, pQTEV [28]. In designing the expression constructs of each CNB, we used the sequence of the cGMP selective CNB-B that we recently reported. The domain boundaries for the individual constructs are: residues 1–173 for CNB-A, 158–294 for CNB-B, 275–428 for CNB-C and 401–542 for CNB-D. All PfPKG proteins were expressed in TP2000 E. coli. The cells were grown at 37 °C to an OD600nm of 0.6, then induced with 0.5 mM IPTG, and grown for an additional 10 hours at 25 °C. Cells were harvested by centrifugation, then resuspended in 50 mM potassium phosphate (pH 7.5), 500 mM NaCl and 1 mM β-mercaptoethanol, and lysed using a cell disruptor (Constant Systems).
The direct fluorescence polarization (FP) assay was performed following the procedure from Moll et al. Measurements were performed in 150 mM NaCl, 20 mM MOPS plus 0.005% (w/v) CHAPS pH 7.0 using the Fusion a-FP microtiter plate reader at room temperature in a 384 well microtiterplate (Perkin Elmer, Optiplate, black). The protein concentration was varied while the concentration of 8-Fluo-cAMP/8-Fluo-cGMP (Biolog Life Science Institute (Bremen, Germany)) was fixed at 1–5 nM. […] The KD values were calculated from sigmoidal dose-response curves.
For competition FP experiments, the protein concentration and the concentration of 8-Fluo-cGMP were fixed to give a polarization signal that was 50% of the maximum value obtained from direct FP measurements. […] FP signals were detected as indicated above. Data were analyzed with GraphPad Prism 5.03 by plotting the polarization signal in mPol against the logarithm of the cyclic nucleotide concentration. The EC50 values were calculated from sigmoidal dose-response curves.

T1 sequence (Q8I719 275-428): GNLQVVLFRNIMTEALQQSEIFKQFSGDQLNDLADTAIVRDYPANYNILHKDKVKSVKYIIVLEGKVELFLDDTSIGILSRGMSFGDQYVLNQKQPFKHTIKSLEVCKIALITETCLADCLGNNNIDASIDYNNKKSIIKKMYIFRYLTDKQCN

Nc1ncnc2c1nc(SCCNC(=S)Nc1ccc(-c3c4ccc(=O)cc-4oc4cc(O)ccc34)c(C(=O)O)c1)n2C1OC2COP(=O)(O)OC2C1O (centres unmarked) [8-Fluo-cAMP]
affinity of PfCNB-C for the fluorescent nucleotide: very weak affinity

Nc1nc2c(nc(SCCNC(=S)Nc3ccc4c(c3)C(=O)OC43c4ccc(O)cc4Oc4cc(O)ccc43)n2[C@@H]2O[C@@H]3COP(=O)(O)O[C@H]3[C@H]2O)c(=O)[nH]1 [8-Fluo-cGMP]
affinity of PfCNB-C for the fluorescent nucleotide: very weak affinity
